According to patent US4591590A, “Benzhydrylpiperazine derivatives, processes for the preparation thereof and pharmaceutical composition comprising the same” (Fujisawa Pharmaceutical Co., Ltd., priority 1982, dated 1986):
Where a name gives a salt, the structure may show the parent alone.

test system: anaphylactic asthma in guinea-pigs; test: Antagonism to anaphylactic asthma in guinea-pigs (passively sensitized with rabbit anti-egg albumin antiserum, egg albumin aerosol challenge; survival); format: in vivo, guinea-pig (male Hartley strain); conditions: 10 mg/kg, oral, 30 minutes before egg albumin aerosol challenge; dose group 3 or 5 animals (* = 3 guinea-pigs: Examples 10-(5) and 11)
Procedure: Equal volumes of a saline solution of egg albumin (200 mg/ml) and of Freund's Complete Adjuvant were mixed and emulsified. Each male New Zealand white strain rabbits, each weighing 2 to 2.5 kg., received an intramuscular injection of 0.5 ml of the emulsion in the left and right thigh regions. One week later, they received an intradermal injection of 0.25 ml of a saline solution of egg albumin (concentration: 20 mg/ml) in the different four sites of the dorsal skin surface three times every other week. Blood samples were collected from the carotid artery one week after the last injection.
The level of anaphylactic anti-egg albumin antibodies in pools of sera were determined by passive cutaneous anaphylaxis (PCA) reactions using shaven Hartley strain test guinea-pigs.
Antiserum was serially diluted (two fold) in saline and 0.1 ml of each antiserum dilution were injected intradermally into the dorsal skin surface of the test guinea-pigs. 24 hours after intradermal sensitization,Egg albumin-specific PCA reactions were elicited by intravenous injection of 10 mg of egg albumin in 1 ml of 1% Evans blue dye dissolved in saline. Reactions were read and recorded as the highest dilution of serum evoking threshold PCA reactivity (5 mm diameter).
Male Hartley strain guinea-pigs, weighing 305 to 400 g, were used. Animals were sensitized by an intravenous injection of rabbit antiserum against egg albumin (4000 PCA titer) with 0.5 ml/animal. After 24 hours, animals were placed individually in a plastic chamber of 5.3 liter volume. An aerosol of 5% egg albumin solution was sprayed in the chamber at a rate of 0.16 ml/min with a commercial nebulizer. The test compounds were given to the animals orally 30 minutes before the challenge with the egg albumin solution. Each dose group consisted of 3 or 5 animals. The inhibitory effect of the test compounds was determined from the number of surviving animals more than 2 hours after spray of the antigen.

| SMILES | Inhibitory effect of anaphylactic asthma in guinea-pig (from number of surviving animals more than 2 hours after spray of the antigen) [%] |
| --- | --- |
| CC(=O)NCCCN1CCN(C(c2ccccc2)c2ccccc2)CC1 [Example 11, 1-(3-acetylaminopropyl)-4-benzhydrylpiperazine] | 100 |
| Cl.Cl.O=C(NCCCN1CCN(C(c2ccccc2)c2ccccc2)CC1)c1ccccc1 [Example 7, 1-(3-benzoylaminopropyl)-4-benzhydrylpiperazine dihydrochloride] | 100 |
| CS(=O)(=O)Nc1ccccc1C(=O)NCCCN1CCN(C(c2ccccc2)c2ccccc2)CC1 [Example 10-(5), 1-[3-(2-Methanesulfonylaminobenzoylamino)propyl]-4-benzhydrylpiperazinedihydrochloride] | 100 |
| COc1ccccc1C(=O)NCCCN1CCN(C(c2ccccc2)c2ccccc2)CC1.Cl.Cl [Example 10-(2), 1-[3-(2-Methoxybenzoylamino)propyl]-4-benzhydrylpiperazine dihydrochloride] | 80 |
| O=C(Cn1c(=O)sc2ccccc21)NCCCN1CCN(C(c2ccccc2)c2ccccc2)CC1 [Example 10-(8), 1-[3-[2-(2-Oxo-benzothiazolin-3-yl)acetylamino]propyl]-4-benzhydrylpiperazine] | 80 |
| CS(=O)(=O)Nc1cccc(CN2CCN(C(c3ccccc3)c3ccccc3)CC2)n1.Cl.Cl [Example 13, 1-(6-methanesulfonylaminopyridin-2-ylmethyl)-4-benzhydrylpiperazine dihydrochloride] | 100 |
| CC(=O)CCCN1CCN(C(c2ccccc2)c2ccccc2)CC1.O=C(O)/C=C/C(=O)O [Example 1, 1-(4-oxo-1-pentyl)-4-benzhydrylpiperazine fumarate] | 100 |
